Source: US20260200943A1, “COMPOUNDS FOR TREATING CANCER” (Genesis Therapeutics, Inc., priority 2022, published 2026)
pKi: −log10 of the molar value. Where two headings read alike, the source gives them in different places. One block for each molecule: values may come before it.

What was measured:
CDK2/CyclinA2 = biological target: T1, CDK2/CyclinA2 (Homo sapiens, UniProt P24941); assay: CDK2/CyclinA2 ChEF Assay (AQT, Table C); format: biochemical; settings: 10xKm; for pKi: AQT ChEF, read-out: CDK2/CCNA2 AQT10xKm Ki: Average Ki; for CDK2/CCNA2 AQT10xKm Ki: CDK2/A2 Selectivity over CDK1/B1 / CDK2/CCNA2 AQT10xKm Ki: CDK2/A2 Selectivity over CDK9: AQT
T1 construct: Wild-type, full length CDK2 in complex with wildtype, full length CyclinA2: Carna Cat #04-103; purchased Carna 04-103
Procedure: (§1) 16 nL of 1000× compound in 100% DMSO is added to a 384-well low volume, black assay plate. 12 μL of 1.3×CDK2/CyclinA2 (Wild-type, full length CDK2 in complex with wildtype, full length CyclinA2: Carna Cat #04-103 diluted in assay buffer (54 mM Hepes, 0.012% Brij-35, 10 mM MgCl2, 0.55 mM EGTA, 1% Glycerol, 0.02% BSA, and 1.2 mM DTT) is added to the plates on top of the compound and pre-incubated for 30 minutes at room temperature. Following the incubation, 4 uL of 4×Sox-chromophore (CSox) labeled peptide substrate (AQT0297, AssayQuant) & ATP diluted in assay buffer is added to the plate to initiate the reaction. The assay is incubated at room temperature for 90 min after initiation. The CSox peptide substrate is phosphorylated by CDK2/A2 upon ATP hydrolysis.
(§2) The fluorescent intensity measurement of the assay plate is read on a microplate reader once the assay is initiated and again at the completion of the assay. Phosphorylation of the CSox-based peptide substrate sensor results in an immediate increase in fluorescence. These raw fluorescence intensity values are normalized to calculate percent inhibition, which are fit to a four-parameter logistic curve and IC50 values are calculated. IC50 values are converted to Ki using substrate, KM^app values, and the Cheng-Prusoff equation.

CDK9/CyclinT1 [1] = biological target: T2, CDK9/CyclinT1 (Homo sapiens, UniProt P50750); assay: CDK9/CyclinT1 ChEF Assay (AQT, Table C); format: biochemical; set-up: Wild-type, full length CDK9 in complex with wildtype, CyclinT1 (1-259): Biortus Cat #BP480/792/691; purchased Biortus BP480/792/691; settings: 10XKm
T2 sequence (P50750 whole entry): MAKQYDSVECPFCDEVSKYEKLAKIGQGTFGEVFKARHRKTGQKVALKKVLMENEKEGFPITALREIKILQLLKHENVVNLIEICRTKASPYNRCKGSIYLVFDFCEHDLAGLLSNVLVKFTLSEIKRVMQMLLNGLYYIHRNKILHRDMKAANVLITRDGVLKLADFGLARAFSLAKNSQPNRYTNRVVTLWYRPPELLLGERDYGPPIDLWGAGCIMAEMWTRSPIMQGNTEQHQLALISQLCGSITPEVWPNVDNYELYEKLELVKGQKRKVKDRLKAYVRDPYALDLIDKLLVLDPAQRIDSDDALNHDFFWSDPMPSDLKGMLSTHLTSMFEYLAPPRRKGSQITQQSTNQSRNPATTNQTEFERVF
T2 sequence (O60563 1-259 partner limits assumed): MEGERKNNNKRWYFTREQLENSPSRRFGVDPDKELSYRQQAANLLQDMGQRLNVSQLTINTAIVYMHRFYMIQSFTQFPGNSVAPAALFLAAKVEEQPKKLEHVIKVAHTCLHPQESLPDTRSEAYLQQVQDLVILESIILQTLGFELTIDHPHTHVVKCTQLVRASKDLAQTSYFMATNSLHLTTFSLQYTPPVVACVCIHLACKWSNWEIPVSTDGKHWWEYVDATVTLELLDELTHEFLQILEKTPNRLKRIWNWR
Procedure: 16 nL of 1000× compound in 100% DMSO is added to a 384-well low volume, black assay plate. 12 μL of 1.3×CDK9/CyclinT1 (Wild-type, full length CDK9 in complex with wildtype, CyclinT1 (1-259): Biortus Cat #BP480/792/691) diluted in assay buffer (54 mM Hepes, 0.012% Brij-35, 10 mM MgCl2, 0.55 mM EGTA, 1% Glycerol, 0.02% BSA, and 1.2 mM DTT) is added to the plates on top of the compound and pre-incubated for 30 minutes at room temperature. Following the incubation, 4 μL of 4×Sox-chromophore (CSox) labeled peptide substrate (AQT0449, AssayQuant) & ATP diluted in assay buffer is added to the plate to initiate the reaction. The assay is incubated at room temperature for 180 min after initiation. The CSox peptide substrate is phosphorylated by CDK9/T1 upon ATP hydrolysis.
as §2

CDK9/CyclinT1 [2] = biological target: T2, CDK9/CyclinT1; assay: CDK9/CyclinT1 Mobility Shift Assay (Caliper, Table B); format: biochemical; set-up: Wild-type, full length CDK9 in complex with wildtype, CyclinT1 (1-259): Biortus Cat #BP480/792/691; purchased Biortus BP480/792/691; settings: read-out: CDK9/Cyclin T1 Caliper Ki: Average Ki
Procedure: 10 nL of 2000× compound in 100% DMSO is added to a 384-well polypropylene assay plate. 15 μL of 1.3×CDK9/T1 and 1.3× fluorescent substrate (Wild-type, full length CDK9 in complex with wildtype, CyclinT1 (1-259): Biortus Cat #BP480/792/691 and FL-Peptide 34: PerkinElmer Cat #760643) diluted in kinase buffer (50 mM Hepes, 0.01% Brij-35, 10 mM MgCl2, 1 mM EGTA, 0.05% BSA, and 2 mM DTT) is added to the plates on top of the compound, mixed, and pre-incubated for 30 minutes at room temperature. The fluorescently labeled peptide substrate is phosphorylated by CDK9/T1 upon ATP hydrolysis. Following the incubation, 5 μL of 4×ATP diluted in kinase buffer is added to the plate to initiate the reaction. Following the 30-minute incubation, the reaction is stopped by adding 75 μL of stopping buffer containing 0.5 M EDTA.
The assay plate is then read on a Lab Chip EZ Reader which separates the fluorescently labeled substrate and product peptides through a mobility difference. The phosphorylation of the substrate imparts a negative charge, which allows differences in separation as both are pulled through the microfluidic chip. The ratio of substrate and product values are used to generate percent conversion. These raw percent conversion values are normalized to calculate percent inhibition, which are fit to a four-parameter logistic curve and IC50 values are calculated. IC50 values are converted to Ki using substrate, Kmapp values, and the Cheng-Prusoff equation.

CDK1/CyclinB1 = biological target: T3, CDK1/CyclinB1 (Homo sapiens, UniProt P06493); assay: CDK1/CyclinB1 ChEF Assay (AQT, Table C); format: biochemical; settings: 10xKm, read-out: CDK1/CCNB1 AQT AQT10xKm Ki: Average Ki
T3 construct: Wild-type, full length CDK1 in complex with wildtype, full length CyclinB1: Carna Cat #04-102; purchased Carna 04-102
T3 sequence (P06493 whole entry): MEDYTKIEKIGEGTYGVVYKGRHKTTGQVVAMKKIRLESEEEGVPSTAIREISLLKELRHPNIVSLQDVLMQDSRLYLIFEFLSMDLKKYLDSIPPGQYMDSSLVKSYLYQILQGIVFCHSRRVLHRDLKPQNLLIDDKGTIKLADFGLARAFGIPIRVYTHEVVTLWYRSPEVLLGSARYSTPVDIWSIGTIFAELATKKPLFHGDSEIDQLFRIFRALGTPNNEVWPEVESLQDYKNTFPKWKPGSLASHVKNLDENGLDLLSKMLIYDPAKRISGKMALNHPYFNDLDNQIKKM
T3 sequence (P14635 whole entry partner): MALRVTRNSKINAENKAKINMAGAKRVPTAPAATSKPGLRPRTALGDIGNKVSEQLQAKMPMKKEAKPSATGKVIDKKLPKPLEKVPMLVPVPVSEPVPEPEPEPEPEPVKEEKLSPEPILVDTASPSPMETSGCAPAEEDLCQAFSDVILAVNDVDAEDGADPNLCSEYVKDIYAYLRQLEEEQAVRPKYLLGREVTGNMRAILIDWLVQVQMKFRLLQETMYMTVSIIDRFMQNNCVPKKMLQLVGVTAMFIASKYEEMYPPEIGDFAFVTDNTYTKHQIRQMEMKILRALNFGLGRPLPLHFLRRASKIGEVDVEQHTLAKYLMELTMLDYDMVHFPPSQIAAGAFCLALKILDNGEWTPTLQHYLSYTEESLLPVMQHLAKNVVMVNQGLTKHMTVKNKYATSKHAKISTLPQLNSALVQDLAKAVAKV
Procedure: as §1, with “1.3×CDK1/CyclinB1” for “1.3×CDK2/CyclinA2”, “CDK1” for “CDK2”, “CyclinB1:” for “CyclinA2:”, “#04-102)” for “#04-103”, “120” for “90”, “CDK1/B1” for “CDK2/A2”
as §2

[3] = from C=CCNC(=O)O[C@@H]1CC[C@H](c2cc(Nc3ccc(S(=O)(=O)NCC=C)cc3F)nn2C(C)(C)C)C1; rcm bond; 20-membered ring; Grubbs Cat. M204; DCE; 1.92 mM; 25.0 °C
[4] = from C=CCNC(=O)O[C@@H]1CC[C@H](c2cc(Nc3ccc(S(=O)(=O)NCC=C)cc3F)nn2C(C)(C)C)C1; rcm bond; Grubbs Cat. M204 (Grubbs II); DCE; 1.92 mM; 25.0 °C; 40.0 h

pKi (CDK2/CyclinA2): > 9.00
CDK2/CCNA2 AQT10xKm Ki: CDK2/A2 Selectivity over CDK1/B1 (CDK2/CyclinA2): A (A>10)
CDK2/CCNA2 AQT10xKm Ki: CDK2/A2 Selectivity over CDK9 (CDK2/CyclinA2): A (A>10)
pKi (CDK9/CyclinT1 [1]): ≤ 7.00
pKi (CDK9/CyclinT1 [2]): ≤ 7.00
pKi (CDK1/CyclinB1): 7.60 to 9.00
Molecule: NS(=O)(=O)c1ccc2cc1OCCCCCNC(=O)O[C@H]1CC[C@H](C1)c1cnc(nc1)N2 (stereo in doubt) [Compound 104, rel-(2R,5S)-7-oxo-6,14-dioxa-8,20,22,25-tetraazatetracyclo[19.2.2.1^{2,5}.1^{15,19}]heptacosa-1(23),15,17,19(26),21,24-hexaene-16-sulfonamide]

Molecule: (1^1S,1^3R,Z)-2^1H-15-oxa-5-thia-3,6,13-triaza-2(5,3)-pyrazola-4(1,4)-cyclohexana-1(1,3)-cyclopentanacyclopentadecaphan-14-one 5,5-dioxide
ring closure, isolated yield (other bond, 22-membered ring, TFA, then DIPEA, DCM/DCE, 4.26 mM, 25.0 °C, 2 steps): 50%

Molecule: NCCCCCOc1cc(Nc2ncc(C3CCC(OC(=O)Oc4ccc([N+](=O)[O-])cc4)C3)cn2)ccc1S(N)(=O)=O (stereo not drawn)
ring closure, isolated yield (the molecule shown is the open-chain precursor, other bond, 20-membered ring, DIEA, DMF, 41.5 mM, 50.0 °C): 11.1%

Molecule: CC(C)(C)OC(=O)NCCOCCNS(=O)(=O)c1ccc(Nc2cc([C@H]3CC[C@@H](OC(=O)Oc4ccc([N+](=O)[O-])cc4)C3)n(C(C)(C)C)n2)c(F)c1
ring closure, isolated yield (the molecule shown is the open-chain precursor, other bond, 21-membered ring, TFA, then DIPEA, DCE, 5.25 mM, 25.0 °C, 2 steps): 62.3%

pKi (CDK2/CyclinA2): > 9.00
CDK2/CCNA2 AQT10xKm Ki: CDK2/A2 Selectivity over CDK1/B1 (CDK2/CyclinA2): A (A>10)
CDK2/CCNA2 AQT10xKm Ki: CDK2/A2 Selectivity over CDK9 (CDK2/CyclinA2): A (A>10)
pKi (CDK9/CyclinT1 [1]): 7.60 to 9.00
pKi (CDK9/CyclinT1 [2]): ≤ 7.00
pKi (CDK1/CyclinB1): 7.60 to 9.00
Molecule: NS(=O)(=O)c1ccc2cc1OCCCCCNC(=O)O[C@H]1CC[C@H](C1)c1cnc(nc1)N2 (stereo in doubt) [Compound 103, 12-oxo-5,13-dioxa-3,11-diaza-2(5,2)-pyrimidina-4(1,3)-benzena-1(1,3)-cyclopentanacyclotridecaphane-44-sulfonamide]

Molecule: Cn1ncc2c1C(=O)NCCCCCOc1nc(ncc1Cl)NC1CCN(CC1)S2(=O)=O
ring closure, isolated yield (from Cn1ncc(S(=O)(=O)N2CCC(N)CC2)c1C(=O)NCCCCCOc1nc(Cl)ncc1Br, snar bond, 19-membered ring, K2CO3, DMSO, 6.02 mM, 110.0 °C): 33%

Molecule: CC(C)(C)n1nc2cc1[C@H]1CC[C@H](C1)OC(=O)NCC=CCNS(=O)(=O)c1ccc(c(F)c1)N2
ring closure, yield after HPLC [3]: 29%
ring closure, yield of all isomers [4]: 29%
